Drawing on PubChem BioAssay (NCI), this text covers GI50 and TGI for 7 compounds.

Molecules are shown by their SMILES. Values joined by “and” are separate entries in the source; they are usually repeats but may differ in a detail not shown here. Identical values can stand only once.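 Cultured in 96-well plates, cells were exposed to test compound for 48 hours across five concentrations. Abbreviation: GI50, concentration required for 50% inhibition of growth. TGI marks complete inhibition of growth.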

Some test systems named below: OVCAR-4 ovarian; U251 CNS; HL-60(TB) leukemia; TK-10 renal; M14 melanoma; HCT-15 colon; MDA-MB-435; SK-MEL-2 melanoma; EKVX NSCLC; OVCAR-8 ovarian.
Common to all, as to assay: inhibition of tumour cell growth, NCI panel, 48 h

Take `COc1ccc2c(N)ncc(C#Cc3cc(C(=O)Nc4ccc(CN5CCN(C)CC5)c(C(F)(F)F)c4)cnc3C)c2c1`: the GI50 is 1.13 µM with OVCAR-4 ovarian; 0.581 µM in the assay with U251 CNS; 1.63 µM in the assay on HL-60(TB) leukemia; 0.821 µM in the assay with TK-10 renal; 0.225 µM with M14 melanoma; 0.386 µM in the assay with HCT-15 colon. The GI50 in the assay with MDA-MB-435 was 0.647 µM; in the assay with SK-MEL-2 melanoma, 0.771 µM; in the assay with EKVX NSCLC, 5.11 µM; in the assay with OVCAR-8 ovarian, 0.861 µM. The TGI is 10.9 µM in the assay on OVCAR-4 ovarian; 1.15 µM in the assay with U251 CNS; 11.1 µM in the assay on HL-60(TB) leukemia; 2.19 µM in the assay on TK-10 renal; 0.934 µM with M14 melanoma; 0.956 µM with HCT-15 colon. Further, the TGI in the assay with MDA-MB-435 is 3.1 µM; in the assay on SK-MEL-2 melanoma, 2.67 µM; in the assay with EKVX NSCLC, 19 µM; in the assay on OVCAR-8 ovarian, 2.71 µM.
With `C[C@]12CC[C@H]3[C@@H](CCC4=CC(=O)CC[C@@]43C)[C@@H]1CC[C@@H]2c1csc(N)n1`, the GI50 was 2.98 µM in the assay on OVCAR-4 ovarian; 3.83 µM in the assay on U251 CNS; 1.65 µM with HL-60(TB) leukemia; 11.3 µM in the assay on TK-10 renal; 5.16 µM with M14 melanoma; 4.2 µM with HCT-15 colon. Besides, the GI50 with MDA-MB-435 is 2.63 µM; in the assay on SK-MEL-2 melanoma, 14.5 µM; in the assay on EKVX NSCLC, 1.12 µM; with OVCAR-8 ovarian, 3.42 µM. The TGI in the assay on OVCAR-4 ovarian turned out to be 27.2 µM; in the assay on U251 CNS, 19 µM; in the assay with HL-60(TB) leukemia it was 8.18 µM; in the assay on TK-10 renal it was 43 µM; in the assay with M14 melanoma it was 21.4 µM; in the assay on HCT-15 colon it was 19.1 µM. The TGI was found to be 10.6 µM in the assay on MDA-MB-435, 32.7 µM in the assay on SK-MEL-2 melanoma, 8.39 µM in the assay with EKVX NSCLC and 26.7 µM with OVCAR-8 ovarian.
For the compound `COC1N(C2CC(O)C(CO)O2)C(=O)NC(=O)C1(F)Br` (stereo not drawn), the GI50 in the assay on OVCAR-4 ovarian is > 59.1 µM; with HL-60(TB) leukemia, 13.8 µM; in the assay with TK-10 renal, > 50 µM; in the assay on M14 melanoma, 38.4 µM; in the assay on HCT-15 colon, 26.3 µM; with SK-MEL-2 melanoma, > 50 µM. In addition, the results for the GI50 in the assay with EKVX NSCLC and with OVCAR-8 ovarian were 19.9 µM and 22.5 µM, respectively. Moreover, the TGI was > 100 µM in the assay on OVCAR-4 ovarian; 50 µM and > 100 µM with U251 CNS; > 67 µM in the assay on HL-60(TB) leukemia; > 100 µM in the assay with TK-10 renal; 50 µM and > 100 µM in the assay with M14 melanoma; 50 µM and > 100 µM in the assay with HCT-15 colon. Besides, the TGI in the assay on MDA-MB-435 is > 100 µM; with SK-MEL-2 melanoma, > 100 µM; with EKVX NSCLC, 50 µM and > 100 µM; in the assay on OVCAR-8 ovarian, 50 µM and > 100 µM.
With `O=C(NCCNCCO)c1ccc2c(c1)oc1cc3ccccc3c(=O)n12`, the GI50 with OVCAR-4 ovarian was > 50 µM; in the assay on U251 CNS it was 14.7 µM; in the assay on HL-60(TB) leukemia, 25.6 µM; with TK-10 renal, 1.48 µM; with M14 melanoma it was > 50 µM; in the assay on HCT-15 colon, 38.4 µM. The GI50 in the assay with MDA-MB-435 is > 50 µM; in the assay with SK-MEL-2 melanoma it was 12.8 µM; in the assay on EKVX NSCLC, 37.8 µM; in the assay on OVCAR-8 ovarian, 15.7 µM. Further, the TGI is > 50 µM with OVCAR-4 ovarian; 42.6 µM with U251 CNS; > 50 µM in the assay on HL-60(TB) leukemia; 19.6 µM in the assay with TK-10 renal; > 50 µM in the assay with M14 melanoma; > 50 µM in the assay on HCT-15 colon. The TGI in the assay on MDA-MB-435 is > 50 µM; with SK-MEL-2 melanoma it was 44.7 µM; in the assay with EKVX NSCLC, > 50 µM; with OVCAR-8 ovarian, > 50 µM.
Consider `CCN(CC)Cc1cc(Nc2nc(NC3CCC(N(C)C)CC3)c3ccccc3n2)ccc1OC` (stereo not drawn), for which the GI50 with OVCAR-4 ovarian was 4.24 µM; in the assay with U251 CNS, 3.61 µM; in the assay with HL-60(TB) leukemia it was 3.87 µM; in the assay with TK-10 renal it was 12 µM; with M14 melanoma it was 1.91 µM; in the assay on HCT-15 colon, 15.2 µM. The GI50 is 3.05 µM in the assay on MDA-MB-435, 3.09 µM with SK-MEL-2 melanoma, 7.75 µM with EKVX NSCLC and 3.08 µM in the assay on OVCAR-8 ovarian. The TGI stood at 18.3 µM with OVCAR-4 ovarian; 14.5 µM with U251 CNS; 14.9 µM in the assay with HL-60(TB) leukemia; 25.4 µM in the assay with TK-10 renal; 3.57 µM with M14 melanoma; 35.3 µM in the assay on HCT-15 colon. Besides, the TGI in the assay on MDA-MB-435 came out at 11.9 µM; with SK-MEL-2 melanoma, 7.52 µM; with EKVX NSCLC, 25.5 µM; with OVCAR-8 ovarian, 13.2 µM.
In the case of `Cn1nccc1Nc1nccc(-c2ccn([C@H](CO)c3ccc(Cl)c(F)c3)c(=O)c2)n1`, the GI50 with OVCAR-4 ovarian is 33.5 µM; with U251 CNS it was 20.8 µM; with HL-60(TB) leukemia, 1.89 µM; with TK-10 renal, 24 µM; in the assay on M14 melanoma, 0.0871 µM; with HCT-15 colon it was 21.3 µM. In addition, the GI50 in the assay on MDA-MB-435 is 3.16 µM; in the assay on SK-MEL-2 melanoma it was 0.275 µM; with EKVX NSCLC, 22.8 µM; in the assay on OVCAR-8 ovarian it was 6.56 µM. The TGI is > 100 µM in the assay on OVCAR-4 ovarian; > 100 µM in the assay on U251 CNS; 30.4 µM in the assay on HL-60(TB) leukemia; > 100 µM in the assay with TK-10 renal; > 72.2 µM in the assay with M14 melanoma; > 100 µM in the assay with HCT-15 colon. Also, the TGI in the assay with MDA-MB-435 is > 100 µM; with SK-MEL-2 melanoma, 27.2 µM; with EKVX NSCLC it was > 100 µM; with OVCAR-8 ovarian, > 100 µM.
As for `CCN(CC)CCCNc1ccc(C)c2sc3ccccc3c(=O)c12`, the GI50 in the assay on OVCAR-4 ovarian was 2.12 µM; in the assay with U251 CNS, 0.602 µM; in the assay with HL-60(TB) leukemia it was 1.71 µM; in the assay on TK-10 renal, 1.37 µM; with M14 melanoma, 0.193 µM; with HCT-15 colon, 0.248 µM. The GI50 in the assay on MDA-MB-435 is 0.21 µM; with SK-MEL-2 melanoma, 1.66 µM; with EKVX NSCLC it was 2.16 µM; in the assay on OVCAR-8 ovarian it was 1.41 µM. The TGI in the assay on OVCAR-4 ovarian was determined as 33 µM; in the assay on U251 CNS, 1.96 µM; in the assay with HL-60(TB) leukemia, 3.63 µM; in the assay with TK-10 renal it was 2.76 µM; in the assay on M14 melanoma it was 0.401 µM; in the assay with HCT-15 colon it was 0.651 µM. Also, the TGI in the assay with MDA-MB-435 worked out at 0.451 µM; in the assay with SK-MEL-2 melanoma, 3.45 µM; in the assay on EKVX NSCLC, 7.65 µM; with OVCAR-8 ovarian, 3.26 µM.
